# Where two headings read alike, the source gives them in different places.
# Assays:
# [1] = system: Con1 subgenomic HCV replicon (genotype 1b); test: Con1 subgenomic replicon HCV RNA in SgPC2 cells (Northern blot); assay type: cell-based, hepatitis C virus; details: 24 h; for potentiation of HCV RNA replication by ethanol, acetaldehyde, isopropyl alcohol, acetone, and acetate: 30 min pretreatment with 5 μM lovastatin, 5 μM fluvastatin, 5 μg/ml TOFA or 5 μg/ml cerulenin; for HCV RNA level / HCV replication in SgPC2 cells: 5 μM acetaldehyde, 5 μM acetate, 0.2% isopropyl alcohol, 2 mM acetone, 25 mM tert-butanol, 5 mM lactate
# From the text: (§1) The genotype 2a HCV constructs, pJFH1 (produces infectious virus particles), replicative-null pJFH1-GND, and subgenomic pSgJFH1-Luc (contains a luciferase reporter gene), are described elsewhere (23, 24). Subgenomic HCV replicons are bicistronic constructs that express only the nonstructural proteins of HCV under the control of encephalocarditis virus IRES; neomycin resistance or firefly luciferase gene is under the control of the HCV IRES (15, 22, 24). These replicons support HCV RNA replication but no virus is formed in cell culture. Huh7 cell clones (SgPC2 cells, Clone B) supporting continuous replication of subgenomic HCV replicon of genotype 1b (Con1 sequence) were also used (17, 22).
# (§2) The in vitro transcription, and transfection of HCV RNA, and Huh7 human hepatoma cell culture were performed as previously described (17). For experiments involving stable clones, cells were cultured in medium supplemented with 0.4-0.5 mg/mL G418, and G418 was removed from cell culture medium one day prior to cell treatments, which were performed as described in Results. For the in vitro infectivity assays, 2 ml of the extracellular medium from JFH1 RNA-transfected cells was used to inoculate naive Huh7 or Huh7.5 cells with 3 ml of fresh medium, as described (23, 25). Treatments were initiated 24 hours after infection and the cells were harvested after another 24 or 48 hrs.
# (§3) Intracellular RNA extraction and northern blots were carried out, as described (16, 17). DNA probes were prepared from nucleotides (“nt.”) 4128-8273 or 358-2816 of JFH1, generated with ScaI and ApaL I, respectively, or nt. 3669 to 6016 of the Con1 subgenomic replicons. Images were quantified by densitometry, using Optiquant Cyclone 4.00 (Perkin Elmer), and data were normalized by glyceraldehyde 3-phosphate dehydrogenase (GAPDH) mRNA content.
# [2] = system: NADH/NAD+ ratio; test: NADH/NAD+ enzymatic NADH recycling assay; assay type: cell-based, human; details: for NADH/NAD+ ratio in ethanol-treated cells: with cyanamide, 4 MP, and DADS, data not shown; for NADH/NAD+ ratio: SgPC2 cells, 0.2% ethanol, 5 μM acetaldehyde, 5 μM acetate, 0.2% isopropyl alcohol, 2 mM acetone, 25 mM tert-butanol
# [3] = system: JFH1 HCV (genotype 2a); assay type: cell-based, hepatitis C virus
# [4] = system: Huh7 human hepatoma cells
# Method: NADH and NAD+ levels were determined by enzymatic NADH recycling assay, using the NAD+/NADH Quantification Kit from Biovision, per manufacturers recommendations with an optional filtration step that used Microcon YM-10 (Millipore). Total ATP content was measured using Somatic Cell ATP Assay Kit from Sigma-Aldrich. The data were normalized by total protein content, determined with BCA assay kit from Pierce.
# To examine whether ethanol increased the complete replication of HCV, positive-sense genomic JFH1 RNA was produced by in vitro transcription, using T7 RNA polymerase, and transfected into Huh7 human hepatoma cells. Then, the transfected cells were exposed to 0-1.0% (v/v; 0-172 mM) ethanol once daily with a change of medium each day for 48 hrs. Then, the cells and the cell culture medium were harvested and analyzed for intracellular and RNase A-resistant extracellular HCV RNA's by a combination of Northern blots and qRT-PCR.
# [5] = system: HCV; details: references 53, 54; cited from earlier work
# [6] = system: JFH1 virus; test: HCV RNA in naive Huh7 or Huh7.5 cells inoculated with JFH1 virus-containing medium; assay type: cell-based, hepatitis C virus
# Method: as §2
# The total intracellular RNA was obtained from cells using Trizol (Invitrogen). To obtain extracellular HCV RNA, cell culture medium samples were first treated with RNase A (100 μg/ml) for 30 min at room temperature, then RNA was extracted using Trizol LS and glycogen as a carrier. HCV RNA was quantified by qRT-PCR as described (17, 23). For JFH1, the primer sequences were 5′ […] 3′ (nt 146 to 164; forward, SEQ ID NO.: 1), and 5′ […] 3′ (nt 277 to 295; reverse, SEQ ID NO.: 2), and the sequence of the fluorogenic probe, labeled with 6-FAM and TAMRA (Biosearch Technologies, Inc.), was 5′ […] 3′ (nt 168 to 188, SEQ ID NO.: 3). The primer and probe sequences for qRT-PCR analysis of Con1 RNA's were described previously (17). Standard curves were generated using in vitro-transcribed HCV RNA's. Intracellular HCV RNA levels were normalized by 18 S rRNA or GAPDH mRNA.
# [7] = system: Con1 HCV subgenomic replicon; test: Con1 subgenomic replicon HCV RNA in Clone B cells; assay type: cell-based, hepatitis C virus; details: 24 hrs, response compared with SgPC2 cells
# From the text: as §1, §3
# [8] = system: SgJFH1-Luc subgenomic HCV replicon (genotype 2a); assay type: cell-based, hepatitis C virus
# From the text: as §1
# After various treatments, SgJFH1 Luc RNA-transfected cells were lysed with 1× Reporter Lysis Buffer, and the luciferase activity was determined using Luciferase Reporter Assay Kit (Promega Corp.) (24). Luciferase activities were normalized by total protein content, determined with bicinchoninic acid (BCA) assay kit from Pierce.
# To test whether the JFH1 RNA replication was also affected by ethanol, Huh7 cells were transfected with JFH1 SgJFH1-Luc RNA and exposed the cells to ethanol for 48 hours. Then, HCV replication was monitored by measuring the firefly luciferase activity (24).
# [9] = system: intracellular cholesterol; test: Total intracellular cholesterol content in SgPC2 cells; assay type: cell-based, human; details: 24 h
# Method: FIG. 7. […] SgPC2 cells were treated for 24 h with (A and B) 0.2% ethanol, 5 μM acetaldehyde, 0.2% isopropyl alcohol, 2 mM acetone, 5 μM acetate±30 min pretreatment with (A) 5 μM lovastatin, 5 μM fluvastatin, (B) 5 μg/ml TOFA, 5 μg/ml cerulenin, or with (C) 2 mM β-mercaptopropionic acid (β-MPA). Then, HCV RNA levels were monitored by Northern blot and quantified by densitometry (n=3). D, SgPC2 cells, treated for 24 h with ethanol, acetaldehyde, acetone, and acetate±lovastatin, were monitored for cholesterol levels (n=3). Lovastatin was activated, as described, before use (29). *, indicates statistically significant difference for indicated sample sizes (p<0.05)
# [10] = 0.2% ethanol ± 0.1 mM 4 MP plus 25 μM DADS
# [11] = BSO with 2 mM GSH or GSH ester, 24 hrs
# [12] = acetaldehyde at physiologically relevant concentrations, 24 hrs
compound,measurement,setting,value
"Cc1cn[nH]c1 [4 MP, 4-methylpyrazole]",potentiation of HCV replication by ethanol,[1]; [10],suppressed
same,NADH/NAD+ ratio in ethanol-treated cells,[2],decreases
C=CCSSCC=C [DADS],potentiation of HCV replication by ethanol,[1]; [10],suppressed
same,NADH/NAD+ ratio in ethanol-treated cells,[2],decreases
CCOC(=O)CNC(=O)[C@H](CS)NC(=O)CC[C@H](N)C(=O)O [GSH ethyl ester],restoration of extracellular HCV RNA in BSO-treated cells,[3]; [11],partially restored
same,restoration of intracellular HCV RNA in BSO-treated cells,[3]; [11],partially restored
"N[C@@H](CCC(=O)N[C@@H](CS)C(=O)NCC(=O)O)C(=O)O [GSH, glutathione]",restoration of intracellular HCV RNA in BSO-treated cells,[3]; [11],could not restore
"OO [H2O2, Hydrogen peroxide]",cytotoxicity in JFH1 cells,[4]; 100 μM H2O2,some cytotoxicity
same,cytotoxicity in JFH1 cells,[4]; 25 and 50 μM H2O2,clearly within the subtoxic range
same,JFH1 RNA levels,"[3]; 25, 50, and 100 μM bolus H2O2, 24 hrs",decreased
"CCCCCCCCCCCCCCOc1ccc(C(=O)O)o1 [TOFA, 5-(Tetradecyloxy)-2-furoic acid]",basal level of HCV replication,[5],suppress
same,"potentiation of HCV RNA replication by ethanol, acetaldehyde, isopropyl alcohol, acetone, and acetate",[1]; SgPC2 cells,almost completely inhibited
CC=O [acetaldehyde],HCV replication in RIG-1-defective Huh7.5 cells,"[6]; FIG. 5, also data not shown",increase
same,HCV replication in naive cells infected with virus-containing medium,"[6]; Huh7.5 cells, acetaldehyde 24 hrs",significant increases
same,HCV RNA in Clone B cells,[7],responded similarly
same,HCV RNA content in non-virus producing JFH1 cells,[8]; [12],significantly increased
same,HCV RNA level / HCV replication in SgPC2 cells,[1],elevated
same,NADH/NAD+ ratio,[2]; 3 h,increases
same,total intracellular cholesterol content,[9],increased
same,HCV RNA content in virus-producing JFH1 cells,[3]; [12],significantly increased
CC(=O)O [acetate],HCV RNA level / HCV replication in SgPC2 cells,[1],increased
same,NADH/NAD+ ratio,[2]; 3 h,increases
same,total intracellular cholesterol content,[9],increased
CC(C)=O [acetone],HCV RNA level / HCV replication in SgPC2 cells,[1],increased
same,NADH/NAD+ ratio,[2]; 3 h,increases
same,total intracellular cholesterol content,[9],increased
C/C=C/C/C=C/CCC(=O)[C@H]1O[C@H]1C(N)=O [cerulenin],basal level of HCV replication,[5],suppress
same,"potentiation of HCV RNA replication by ethanol, acetaldehyde, isopropyl alcohol, acetone, and acetate",[1]; SgPC2 cells,almost completely inhibited
N#CN [cyanamide],potentiation of HCV replication by ethanol,[1]; 0.2% ethanol ± 0.1 mM cyanamide,suppressed
same,NADH/NAD+ ratio in ethanol-treated cells,[2],decreases
CC(C)O [isopropyl alcohol],HCV RNA level / HCV replication in SgPC2 cells,[1],increased
same,NADH/NAD+ ratio,[2]; 3 h,increases
CC(O)C(=O)O (centres unmarked) [lactate],HCV RNA level / HCV replication in SgPC2 cells,[1],little to no effect
same,NADH levels,"[2]; 5 mM lactate, 3 h",235.9±11.9 % of the control level
same,total intracellular cholesterol content,[9],no significant effect
"CC[C@H](C)C(=O)O[C@H]1C[C@@H](C)C=C2C=C[C@H](C)[C@H](CC[C@@H]3C[C@@H](O)CC(=O)O3)[C@H]21 [lovastatin, Lovastatin]",basal level of HCV replication,[5],suppress
same,"potentiation of HCV RNA replication by ethanol, acetaldehyde, isopropyl alcohol, acetone, and acetate",[1]; SgPC2 cells,almost completely inhibited
same,"increase of intracellular cholesterol content by ethanol, acetaldehyde, acetone, and acetate",[9]; ± lovastatin,attenuated
CC(C)(C)O [tert-butanol],HCV RNA level / HCV replication in SgPC2 cells,[1],did not elevate
same,NADH/NAD+ ratio,[2]; 3 h,did not elevate
O=C(O)CCS [β-mercaptopropionic acid],increase in HCV replication,"[1]; 2 mM β-mercaptopropionic acid, SgPC2 cells",15.2±1.7 fold
glucose oxidase [GO],effect on the suppression of subgenomic JFH1 RNA replication by BSO,[8],exacerbated the suppression
same,decrease of intracellular JFH1 RNA,"[3]; 0.25 mU/mL GO + glucose, 24 hrs",30±8%
same,effect on the suppression of HCV RNA by BSO,"[3]; GO + glucose after 16 hr pre-treatment with 20 μM BSO, 24 hrs",exacerbated the suppression

# — patent publication US20100226888A1, “Ethanol Enhances the Complete Replication of Hepatitis C Virus: the Role of Acetaldehyde” (priority 2009, published 2010)
